# Assay results reported in US10457707B2, “Substituted urea depsipeptide analogs as activators of the CLPP endopeptidase” (priority 2015, dated 2019).
# Read-outs that look alike come from different tables or passages of the source. *1 amine or outer side, *2 acyl side, *3 side chain or, on linkers, in order; H or OH if unused. Where a SMILES comes first, the peptide text is derived from it. Bridges are numbered along the chain shown (N, C = ends). [ ]: non-standard residue; d: D form. The star is where a group is joined. Phe(3,5-F2) = N[C@@H](Cc1cc(F)cc(F)c1)C(=O)O; NH(1-Me-indolin-5-yl) = CN1CCc2cc(N*)ccc21; NMepT = CN[C@H](C(=O)O)[C@@H](C)OP(=O)(O)O; NH(4-OCF3-phenyl) = FC(F)(F)Oc1ccc(N*)cc1; Morpholine(3S-CO) = O=C(O)[C@@H]1COCCN1; Pro(4S-Me) = C[C@@H]1CN[C@H](C(=O)O)C1; NH(4-Cl-2-F-phenyl) = Fc1cc(Cl)ccc1N*; Pro(4R-Me) = C[C@H]1CN[C@H](C(=O)O)C1; NH(3,4-Me2-phenyl) = Cc1ccc(N*)cc1C; NMeaThr = CN[C@H](C(=O)O)[C@H](C)O; Hyp = O=C(O)[C@@H]1C[C@@H](O)CN1; NH(4-Et-phenyl) = CCc1ccc(N*)cc1; NMeT = CN[C@H](C(=O)O)[C@@H](C)O; Heptenoyl(2E) = CCCC/C=C/C(=O)*; NH(4-Me-phenyl) = Cc1ccc(N*)cc1; aThr = C[C@H](O)[C@H](N)C(=O)O; Pip = O=C(O)[C@@H]1CCCCN1; X6 = Cc1cc(C)cc(N*)c1; CO = O=C([*:1])[*:2]
# Experiments:
# Sa-ClpP = target: T1, Sa-ClpP (Staphylococcus aureus, UniProt Q2G036); assay: Sa-ClpP casein-BODIPY ClpP activation assay, method variant not marked in Table 5; type: biochemical, S. aureus
# T1 construct: made in house; host or cells: E. coli BL21(DE3)
# T1 sequence (Q2G036 1-195): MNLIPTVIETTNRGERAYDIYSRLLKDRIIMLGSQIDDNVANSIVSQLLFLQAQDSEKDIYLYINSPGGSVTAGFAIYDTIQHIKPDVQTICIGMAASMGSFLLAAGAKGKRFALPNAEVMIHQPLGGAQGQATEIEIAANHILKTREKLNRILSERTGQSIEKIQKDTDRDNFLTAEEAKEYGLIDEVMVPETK
# Outline: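 Purified S. aureus ClpP (10 μM) incubated with 25 μg/ml BODIPY FL casein and compound (0-1000 μM) in pH 8 Tris/KCl/TCEP at 37° C. Fluorescence (485/528 nm) read every 5 min over 45 min; reaction velocities fitted to dose-response for EC50 (50% activation), triplicate.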
# [1] = tested on: Staphylococcus aureus, USA 300 wherein ClpP is inactivated; assay: Minimal inhibitory concentration assay; type: cell-based
# Outline: (§1)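 Antibacterial activity was measured by CLSI-standard microdilution in broth, using overnight aerobic incubation at 37 °C. Growth inhibition was scored visually, and MIC taken as the lowest concentration preventing growth.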
# [2] = tested on: Staphylococcus aureus, USA 300; assay: Minimal inhibitory concentration assay; type: cell-based; conditions: USA300, read-out: Minimal Inhibitory Concentrations S. aureus USA 300
# Outline: as §1
# [3] = values without ** or † mark, assay variant not stated, read-out: ClpP Activation EC50
SMILES,EC50 (Sa-ClpP) [nM],Minimal Inhibitory Concentrations S. aureus USA 300 ΔClpP [1] [µM],MIC [2] [µM],EC50 (Sa-ClpP; [3]) [nM]
"Cc1cc(C)cc(NC(=O)N[C@@H](Cc2cc(F)cc(F)c2)C(=O)N[C@@H]2C(=O)N3CCC[C@H]3C(=O)N3CCCC[C@H]3C(=O)N[C@@H](C)C(=O)N3C[C@H](C)C[C@H]3C(=O)O[C@H]2C)c1 [Compound 304, (S)-3-(3,5-difluorophenyl)-2-(3-(3,5-dimethylphenyl)ureido)-N-((2R,6S,8aS,14aS,20S,21S,23aS)-2,6,21-trimethyl-5,8,14,19,23-pentaoxooctadecahydro-1H,5H,14H,19H-pyrido[2,1-i]dipyrrolo[2,1-c:2′,1′-l][1]oxa[4,7,10,13]tetraazacyclo-hexadecin-20-yl)propanamide] ({X6-CO}-[Phe(3,5-F2)][aThr]P[Pip]A[Pro(4R-Me)]; ester 2-C)",380 ± 10,>20,0.079,
"CCCC/C=C/C(=O)N[C@@H](Cc1cc(F)cc(F)c1)C(=O)N[C@@H]1C(=O)N2CCC[C@H]2C(=O)N(C)[C@@H]([C@@H](C)O)C(=O)N[C@@H](C)C(=O)N2C[C@H](C)C[C@H]2C(=O)O[C@H]1C [Compound 308, (E)-N—((S)-3-(3,5-difluorophenyl)-1-(((2R,6S,9S,11aS,17S,18S,20aS)-9-((R)-1-hydroxyethyl)-2,6,10,18-tetramethyl-5,8,11,16,20-pentaoxohexadecahydro-1H,5H,16H-dipyrrolo[2,1-c:2′,1′-l][1]oxa[4,7,10,13]tetraazacyclohexadecin-17-yl)amino)-1-oxopropan-2-yl)hept-2-enamide] ({Heptenoyl(2E)}-[Phe(3,5-F2)][aThr]P[NMeT]A[Pro(4R-Me)]; ester 2-C)",,>20,0.039,280 ± 20
"C[C@@H]1C[C@H]2C(=O)O[C@@H](C)[C@H](NC(=O)[C@H](Cc3cc(F)cc(F)c3)NC(=O)Nc3ccc(Cl)cc3F)C(=O)N3C[C@H](O)C[C@H]3C(=O)N3CCOC[C@H]3C(=O)N[C@@H](C)C(=O)N2C1 [Compound 316, (S)-2-(3-(4-chloro-2-fluorophenyl)ureido)-3-(3,5-difluorophenyl)-N-((6aS,8R,12S,13S,15aS,17R,21S,23aS)-8-hydroxy-13,17,21-trimethyl-6,11,15,20,23-pentaoxooctadecahydro-6H,11H,15H-[1,4]oxazino[3,4-i]dipyrrolo[2,1-c:2′,1′-l][1]oxa[4,7,10,13]tetraazacyclo-hexadecin-12-yl)propanamide] ({NH(4-Cl-2-F-phenyl)-CO}-[Phe(3,5-F2)][aThr][Hyp][Morpholine(3S-CO)]A[Pro(4R-Me)]; ester 2-C)",450 ± 20,>20,0.156,
"CCc1ccc(NC(=O)N[C@@H](Cc2cc(F)cc(F)c2)C(=O)N[C@@H]2C(=O)N3CCC[C@H]3C(=O)N(C)[C@@H]([C@H](C)O)C(=O)N[C@@H](C)C(=O)N3C[C@@H](C)C[C@H]3C(=O)O[C@H]2C)cc1 [Compound 204, (S)-3-(3,5-difluorophenyl)-2-(3-(4-ethylphenyl)ureido)-N-((2S,6S,9S,11aS,17S,18S,20aS)-9-((S)-1-hydroxyethyl)-2,6,10,18-tetramethyl-5,8,11,16,20-pentaoxohexadecahydro-1H,5H,16H-dipyrrolo[2,1-c:2′,1′-l][1]oxa[4,7,10,13]tetraazacyclohexadecin-17-yl)propanamide] ({NH(4-Et-phenyl)-CO}-[Phe(3,5-F2)][aThr]P[NMeaThr]A[Pro(4S-Me)]; ester 2-C)",,100,0.098,350 ± 10
"Cc1ccc(NC(=O)N[C@@H](Cc2cc(F)cc(F)c2)C(=O)N[C@@H]2C(=O)N3CCC[C@H]3C(=O)N(C)[C@@H]([C@@H](C)OP(=O)(O)O)C(=O)N[C@@H](C)C(=O)N3C[C@@H](C)C[C@H]3C(=O)O[C@H]2C)cc1 [Compound 188, (R)-1-((2S,6S,9S,11aS,17S,18S,20aS)-17-((S)-3-(3,5-difluorophenyl)-2-(3-(p-tolyl)ureido)propanamido)-2,6,10,18-tetramethyl-5,8,11,16,20-pentaoxohexadecahydro-1H,5H,16H-dipyrrolo[2,1-c:2′,1′-l][1]oxa[4,7,10,13]tetraazacyclohexadecin-9-yl)ethyl dihydrogen phosphate] ({NH(4-Me-phenyl)-CO}-[Phe(3,5-F2)][aThr]P[NMepT]A[Pro(4S-Me)]; ester 2-C)",,>200,50,1800 ± 70
"Cc1ccc(NC(=O)N[C@@H](Cc2cc(F)cc(F)c2)C(=O)N[C@H]2COC(=O)[C@@H]3C[C@@H](C)CN3C(=O)[C@H](C)NC(=O)C3CCCCN3C(=O)[C@@H]3C[C@@H](O)CN3C2=O)cc1 (stereo partly drawn) [Compound 323, (S)-3-(3,5-difluorophenyl)-N-((2R,6S,8aR,14aS,16R,20S,23aS)-16-hydroxy-2,6-dimethyl-5,8,14,19,23-pentaoxooctadecahydro-1H,5H,14H,19H-pyrido[2,1-i]dipyrrolo[2,1-c:2′,1′-l][1]oxa[4,7,10,13]tetraazacyclohexadecin-20-yl)-2-(3-(p-tolyl)ureido)propanamide]",,>20,1.25,670 ± 20
"Cc1ccc(NC(=O)N[C@@H](Cc2cc(F)cc(F)c2)C(=O)N[C@@H]2C(=O)N3C[C@H](O)C[C@H]3C(=O)N3CCCC[C@H]3C(=O)N[C@@H](C)C(=O)N3C[C@H](C)C[C@H]3C(=O)O[C@H]2C)cc1C [Compound 212, (S)-3-(3,5-difluorophenyl)-2-(3-(3,4-dimethylphenyl)ureido)-N-((2R,6S,8aS,14aS,16R,20S,21S,23aS)-16-hydroxy-2,6,21-trimethyl-5,8,14,19,23-pentaoxooctadecahydro-1H,5H,14H,19H-pyrido[2,1-i]dipyrrolo[2,1-c:2′,1′-l][1]oxa[4,7,10,13]tetraazacyclohexadecin-20-yl)propanamide] ({NH(3,4-Me2-phenyl)-CO}-[Phe(3,5-F2)][aThr][Hyp][Pip]A[Pro(4R-Me)]; ester 2-C)",,>200,0.1,500 ± 30
"CCc1ccc(NC(=O)N[C@@H](Cc2cc(F)cc(F)c2)C(=O)N[C@@H]2C(=O)N3C[C@H](O)C[C@H]3C(=O)N3CCOC[C@H]3C(=O)N[C@@H](C)C(=O)N3C[C@H](C)C[C@H]3C(=O)O[C@H]2C)cc1 [Compound 320, (S)-3-(3,5-difluorophenyl)-2-(3-(4-ethylphenyl)ureido)-N-((6aS,8R,12S,13S,15aS,17R,21S,23aS)-8-hydroxy-13,17,21-trimethyl-6,11,15,20,23-pentaoxooctadecahydro-6H,11H,15H-[1,4]oxazino[3,4-i]dipyrrolo[2,1-c:2′,1′-l][1]oxa[4,7,10,13]-tetraazacyclohexadecin-12-yl)propanamide] ({NH(4-Et-phenyl)-CO}-[Phe(3,5-F2)][aThr][Hyp][Morpholine(3S-CO)]A[Pro(4R-Me)]; ester 2-C)",330 ± 100,0.7812,0.781,
"C[C@@H]1C[C@H]2C(=O)O[C@@H](C)[C@H](NC(=O)[C@H](Cc3cc(F)cc(F)c3)NC(=O)Nc3ccc4c(c3)CCN4C)C(=O)N3CCC[C@H]3C(=O)N3CCCC[C@H]3C(=O)N[C@@H](C)C(=O)N2C1 [Compound 310, (S)-3-(3,5-difluorophenyl)-2-(3-(1-methylindolin-5-yl)ureido)-N-((2R,6S,8aS,14aS,20S,21S,23aS)-2,6,21-trimethyl-5,8,14,19,23-pentaoxooctadecahydro-1H,5H,14H,19H-pyrido[2,1-i]dipyrrolo[2,1-c:2′,1′-l][1]oxa[4,7,10,13]tetraazacyclo-hexadecin-20-yl)propanamide] ({NH(1-Me-indolin-5-yl)-CO}-[Phe(3,5-F2)][aThr]P[Pip]A[Pro(4R-Me)]; ester 2-C)",,>20,0.078,440 ± 30
"C[C@H]1C[C@H]2C(=O)O[C@@H](C)[C@H](NC(=O)[C@H](Cc3cc(F)cc(F)c3)NC(=O)Nc3ccc(OC(F)(F)F)cc3)C(=O)N3CCC[C@H]3C(=O)N3CCOC[C@H]3C(=O)N[C@@H](C)C(=O)N2C1 [Compound 201, (S)-3-(3,5-difluorophenyl)-2-(3-(4-(trifluoromethoxy)phenyl)ureido)-N-((6aS,12S,13S,15aS,17S,21S,23aS)-13,17,21-trimethyl-6,11,15,20,23-pentaoxooctadecahydro-6H,11H,15H-[1,4]oxazino[3,4-i]dipyrrolo[2,1-c:2′,1′-l][1]oxa[4,7,10,13]tetraazacyclohexadecin-12-yl)propanamide] ({NH(4-OCF3-phenyl)-CO}-[Phe(3,5-F2)][aThr]P[Morpholine(3S-CO)]A[Pro(4S-Me)]; ester 2-C)",,50,0.049,330 ± 10
